This note sets out measurements from patent US8575197B2, “Pyrolinone derivative and pharmaceutical composition comprising the same” (Shionogi & Co., Ltd., priority 2008, dated 2013).

The target in the assay is human P2X3 receptor (Homo sapiens (Human), UniProt P56373). In words: P2X3 receptor inhibition, ATP-evoked Fluo-3 calcium fluorescence (FDSS 3000). The format is cell-based. To be noted: C6BU-1 cell transfected with human P2X3 receptor gene; ATP-evoked Fluo-3 fluorescence. The method in brief:
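C6BU-1 cells stably transfected with human P2X3, loaded with 4 μM Fluo-3-AM for 1 h at 37 °C in HEPES buffer pH 7.5 with probenecid. Compound added 5 min before 40 nM ATP solution; fluorescence followed 3 min. IC50 from ratio of peak post-ATP to baseline fluorescence.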

Sequence of human P2X3 receptor (P56373 whole entry): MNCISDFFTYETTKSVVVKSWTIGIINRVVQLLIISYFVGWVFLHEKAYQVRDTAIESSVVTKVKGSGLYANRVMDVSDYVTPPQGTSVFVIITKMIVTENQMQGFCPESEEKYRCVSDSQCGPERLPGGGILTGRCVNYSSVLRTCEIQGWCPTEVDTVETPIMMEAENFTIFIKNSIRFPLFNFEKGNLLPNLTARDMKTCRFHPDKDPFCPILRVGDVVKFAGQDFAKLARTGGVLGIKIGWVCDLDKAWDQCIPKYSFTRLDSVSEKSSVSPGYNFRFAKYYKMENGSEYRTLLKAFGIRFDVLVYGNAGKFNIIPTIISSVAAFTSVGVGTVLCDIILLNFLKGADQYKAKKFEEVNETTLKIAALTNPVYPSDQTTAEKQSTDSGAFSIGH

Turning to `CCN(C)C(=O)c1ccccc1C1C(C(=O)C(C)C)=C(O)C(=O)N1c1ccc(-c2csc(C)c2)cc1` (stereo not shown) [Compound I-494], the half-maximal inhibitory concentration (IC50) was 53 nM.

For the molecule `COc1ncccc1C1c2c(C(C)(C)C)n[nH]c2C(=O)N1c1ccc(-c2cccs2)nc1` (stereo not shown) [II-270], the IC50 worked out at 25 nM.

Regarding `Cc1nc(-c2ccc(N3C(=O)C(O)=C(C(=O)CC(C)C)C3c3ccccc3N3CCOCC3)cc2)no1` (stereo not shown) [Compound I-488], the IC50 is 67 nM.

With `CC(C)(C)C(=O)C1=C(O)C(=O)N(c2ccc(-c3ccon3)cc2)C1c1ccccc1OCC(=O)O` (stereo not shown) [Compound I-134], the IC50 was determined as 776 nM.

As for `COc1ccccc1C1C(C(=O)CC(C)C)=C(O)C(=O)N1c1ccc(-c2csc(C)c2)cc1` (stereo not shown) [Compound I-379], the IC50 is 118 nM.

On to `Cc1ccc(-c2ccc(N3C(=O)C(O)=C(C(=O)CC(C)C)C3c3cccnc3C(=O)NC(C)C)cc2)s1` (stereo not shown) [Compound I-578], for which the half-maximal inhibitory concentration (IC50) was 386 nM.

Consider `CSc1ccc(N2C(=O)C(O)=C(C(=O)C(C)C)C2c2ccccc2OCCCO)cc1` (stereo not shown) [Compound I-476], for which the half-maximal inhibitory concentration (IC50) worked out at 51 nM.

As for `COc1ccc(C2C(C(=O)C(C)C)=C(O)C(=O)N2c2ccc(-c3ccsc3)cc2)cc1` (stereo not shown) [Compound I-285], the IC50 was 648 nM.

As to `CC(C)(C)c1n[nH]c2c1C(c1ccccc1OCCO)N(c1ccc(-c3ccsc3)cc1)C2=O` (stereo not shown) [II-104], the half-maximal inhibitory concentration (IC50) amounted to 3 nM.

Regarding `CC(C)c1n[nH]c2c1C(c1ccccc1OCC[S+](C)[O-])N(c1ccc(-c3ccsc3)cc1)C2=O` (stereo not shown) [II-080], the IC50 turned out to be 11 nM.

As to `COCOc1ccccc1C1C(C(=O)CC(C)C)=C(O)C(=O)N1c1ccc(-c2ccc(C)s2)cc1` (stereo not shown) [Compound I-305], the 50% inhibitory concentration (IC50) was determined as 20 nM.

`COCOc1ccccc1C1C(C(=O)C(C)C)=C(O)C(=O)N1c1ccc(-c2ccc(C)s2)cc1` (stereo not shown) [Compound I-264]: the IC50 came to 14 nM.

Turning to `COCCOc1ccccc1C1C(C(=O)C(C)C)=C(O)C(=O)N1c1ccc(-c2noc(C)n2)cc1` (stereo not shown) [Compound I-275], the IC50 was 172 nM.

Turning to `CSc1ccc(N2C(=O)C(O)=C(C(=O)CC(C)C)C2c2ccccc2OCC#N)cc1` (stereo not shown) [Compound I-511], the IC50 came to 117 nM.

On to `Cc1ccc(-c2ccc(N3C(=O)C(O)=C(C(=O)C(C)C)C3c3ccccc3OCCO)cc2)s1` (stereo not shown) [Compound I-258], for which the IC50 was 24 nM.

Consider `CC(C)c1n[nH]c2c1C(c1ccccc1CN(C)C)N(c1ccc(-c3ccsc3)cc1)C2=O` (stereo not shown) [II-084], for which the concentration for half-maximal inhibition (IC50) stood at 18 nM.

On to `Cc1ccc(-c2ccc(N3C(=O)C(O)=C(C(=O)C(C)C)C3c3ccccc3OC(C)C)cc2)s1` (stereo not shown) [Compound I-400], for which the IC50 was 22 nM.

Take `Cc1cc(-c2ccc(N3C(=O)C(O)=C(C(=O)C(C)C)C3c3ccccc3C(=O)N(C)CCO)cc2)cs1` (stereo not shown) [Compound I-584]: the IC50 amounted to 167 nM.

Consider `CC(=O)Nc1ccccc1C1c2c(C(C)C)n[nH]c2C(=O)N1c1ccc(-c2ccsc2)cc1` (stereo not shown) [II-085], for which the IC50 worked out at 23 nM.

`COc1ccccc1C1c2c(C(C)(C)C)n[nH]c2C(=O)N1c1ccc(-c2ccsc2)cn1` (stereo not shown) [II-248]: the 50% inhibitory concentration (IC50) amounted to 13 nM.

For `COCCOc1ncccc1[C@@H]1C(C(=O)C(C)C)=C(O)C(=O)N1c1ccc(-c2ccsc2)cc1` [Compound I-395], the IC50 stood at 6 nM.

For the molecule `COc1ccccc1C1C(C(=O)C(C)(C)C)=C(O)C(=O)N1c1ccc(-c2ccsc2Cl)cc1` (stereo not shown) [Compound I-192], the concentration for half-maximal inhibition (IC50) worked out at 612 nM.

Take `CNC(=O)COc1ncccc1C1C(C(=O)C(C)C)=C(O)C(=O)N1c1ccc(-c2ccsc2)cc1` (stereo not shown) [Compound I-199]: the concentration for half-maximal inhibition (IC50) was 19 nM.

Regarding `Cc1ccc(-c2ccc(N3C(=O)C(O)=C(C(=O)C(C)C)C3c3ccccc3N3CCOCC3)cc2)o1` (stereo not shown) [Compound I-486], the IC50 is 4 nM.

For the molecule `CSc1ccccc1C1C(C(=O)C(C)C)=C(O)C(=O)N1c1ccc(-c2csc(C)c2)cc1` (stereo not shown) [Compound I-559], the half-inhibitory concentration (IC50) came to 40 nM.

For `O=C1C(O)=C(S(=O)(=O)c2ccccc2)C(C2CCCCC2)N1c1ccc(-c2ccon2)cc1` (stereo not shown) [Compound I-482], the IC50 stood at 333 nM.

Regarding `Cc1cc(-c2ccc(N3C(=O)C(O)=C(C(=O)C(C)C)C3c3ccccc3CC(=O)N3CCCC3)cc2)cs1` (stereo not shown) [Compound I-526], the IC50 came to 219 nM.

With `CNC(=O)COc1ccccc1C1c2c(C(C)(C)C)n[nH]c2C(=O)N1c1ccc(-c2ccsc2)cc1` (stereo not shown) [II-167], the concentration for half-maximal inhibition (IC50) stood at 5 nM.

In the case of `CC(C)CC(=O)C1=C(O)C(=O)N(c2ccc(C3=NCCS3)cc2)C1c1ccccc1OC(C)C` (stereo not shown) [Compound I-413], the IC50 is 42 nM.

Turning to `COCCOc1cccc(C2C(C(=O)C(C)C)=C(O)C(=O)N2c2ccc(-c3ccsc3)cc2)c1` (stereo not shown) [Compound I-286], the 50% inhibitory concentration (IC50) came to 669 nM.

Regarding `COCOc1ccccc1C1C(C(=O)CC(C)C)=C(O)C(=O)N1c1ccc(-c2ccoc2)cc1` (stereo not shown) [Compound I-349], the IC50 worked out at 37 nM.

`COCOc1ccccc1C1C(C(=O)C(C)C)=C(O)C(=O)N1c1ccc(-c2csc(C)c2)cc1` (stereo not shown) [Compound I-262]: the IC50 worked out at 16 nM.

For the molecule `Cc1cc(-c2ccc(N3C(=O)C(O)=C(C(=O)CC(C)C)C3c3ccccc3OC(C)C)cc2)on1` (stereo not shown) [Compound I-370], the half-inhibitory concentration (IC50) turned out to be 194 nM.

Consider `COc1ccccc1C1c2c(C(C)(C)C)n[nH]c2C(=O)N1c1ccc(-c2ccc(C)s2)cc1` (stereo not shown) [II-275], for which the IC50 turned out to be 27 nM.

`COc1ccccc1C1c2c(C(C)(C)CO)n[nH]c2C(=O)N1c1ccc(-c2cc[nH]c2)cc1` (stereo not shown) [II-232]: the IC50 worked out at 16 nM.

Regarding `CC(C)(C)C(=O)C1=C(O)C(=O)N(c2ccc(-c3cccs3)cc2)C1c1cccc[n+]1[O-]` (stereo not shown) [Compound I-112], the half-inhibitory concentration (IC50) worked out at 388 nM.

For the molecule `COc1ccccc1C1c2c(C(C)(C)C)n[nH]c2C(=O)N1c1ccc(-c2cccs2)cn1` (stereo not shown) [II-256], the IC50 stood at 18 nM.

Turning to `CC(C)c1n[nH]c2c1C(c1cccnc1OCC(=O)O)N(c1ccc(-c3ccsc3)cc1)C2=O` (stereo not shown) [II-052], the concentration for half-maximal inhibition (IC50) came to 33 nM.

`COCCOc1ncccc1C1C(C(=O)C(C)(C)C)=C(O)C(=O)N1c1ccc(SC)cc1` (stereo not shown) [Compound I-150]: the concentration for half-maximal inhibition (IC50) came out at 415 nM.

Turning to `COc1ccc(C(=O)C2=C(O)C(=O)N(c3ccc4[nH]ccc4c3)C2C2CCCCC2)cc1` (stereo not shown) [Compound I-012], the 50% inhibitory concentration (IC50) stood at 340 nM.

For the molecule `CC(=O)N(C)c1ccccc1C1C(C(=O)C(C)C)=C(O)C(=O)N1c1ccc(-c2ccsc2)cc1` (stereo not shown) [Compound I-212], the IC50 stood at 92 nM.

As for `COc1ncccc1C1c2c(C(C)(C)C)n[nH]c2C(=O)N1c1ccc(-c2ccoc2)nc1` (stereo not shown) [II-269], the half-inhibitory concentration (IC50) was 363 nM.

For the molecule `CCOC(=O)c1ccc(N2C(=O)C(O)=C(C(=O)C(C)(C)C)C2c2ccccc2OC)cc1` (stereo not shown) [Compound I-001], the IC50 came out at 32 nM.

In the case of `COc1ccccc1C1c2c(C(C)(C)C)n[nH]c2C(=O)N1c1ccc(-c2csc(C)c2)cc1` (stereo not shown) [II-274], the IC50 turned out to be 19 nM.

Consider `CC(=O)N(C)c1ccccc1C1c2c(C(C)C)n[nH]c2C(=O)N1c1ccc(-c2ccsc2)cc1` (stereo not shown) [II-082], for which the IC50 was 44 nM.

For the molecule `COCc1ccccc1C1C(C(=O)C(C)C)=C(O)C(=O)N1c1ccc(-c2cc(C)on2)cc1` (stereo not shown) [Compound I-458], the IC50 was 699 nM.

For the molecule `COc1ccccc1C1c2c(-c3ccco3)n[nH]c2C(=O)N1c1ccc(-c2ccsc2)cc1` (stereo not shown) [II-178], the IC50 was found to be 149 nM.

As to `CC(C)Oc1ccccc1C1c2c(C(C)(C)C)n[nH]c2C(=O)N1c1ccc(-c2ccon2)cc1` (stereo not shown) [II-019], the concentration for half-maximal inhibition (IC50) came to 21 nM.

`COC(=O)COCc1ncccc1C1c2c(C(C)(C)C)n[nH]c2C(=O)N1c1ccc(-c2ccsc2)cc1` (stereo not shown) [II-128]: the IC50 is 216 nM.

For `CC(C)C(=O)C1=C(O)C(=O)N(c2ccc(-c3ccsc3)cc2)C1c1ccccc1OCC#N` (stereo not shown) [Compound I-183], the IC50 came to 4 nM.

Turning to `COc1ccc(F)cc1C1C(C(=O)C(C)C)=C(O)C(=O)N1c1ccc(-c2ccsc2)cc1` (stereo not shown) [Compound I-452], the half-inhibitory concentration (IC50) turned out to be 26 nM.

`COc1ccc(C(=O)C2=C(O)C(=O)N(c3nc4cc(OC)ccc4s3)C2c2ccccc2OCCO)cc1` (stereo not shown) [Compound I-125]: the IC50 worked out at 110 nM.

In the case of `CSc1ccc(N2C(=O)C(O)=C(C(=O)C(C)C)C2c2ccccc2OCC2CC2)cc1` (stereo not shown) [Compound I-589], the half-inhibitory concentration (IC50) was 32 nM.

In the case of `COc1ccccc1C1C(C(=O)C(C)C)=C(O)C(=O)N1c1ccc(-c2ccco2)cc1` (stereo not shown) [Compound I-224], the IC50 is 73 nM.

As to `CC(C)c1n[nH]c2c1C(c1ccccc1C(=O)O)N(c1ccc(-c3ccsc3)cc1)C2=O` (stereo not shown) [II-089], the 50% inhibitory concentration (IC50) amounted to 107 nM.

As to `CCCCC(CCCC)C1C(C(=O)c2ccc(CO)cc2)=C(O)C(=O)N1c1ccc(-c2ccon2)cc1` (stereo not shown) [Compound I-007], the IC50 was found to be 100 nM.

On to `CSc1ccccc1C1C(C(=O)C(C)(C)C)=C(O)C(=O)N1c1ccc(-c2ccon2)cc1` (stereo not shown) [Compound I-057], for which the IC50 turned out to be 159 nM.

As to `COc1ncccc1C1C(C(=O)C(C)C)=C(O)C(=O)N1c1ccc(-c2csc(C)c2)cc1` (stereo not shown) [Compound I-320], the IC50 is 274 nM.

In the case of `COc1ccc(-c2n[nH]c3c2C(c2ccccc2OCCO)N(c2nc4ccc(OC)cc4s2)C3=O)cc1` (stereo not shown) [II-118], the concentration for half-maximal inhibition (IC50) came to 429 nM.

`COCCOc1ncccc1C1C(C(=O)C(C)C)=C(O)C(=O)N1c1ccc(-c2noc(C)n2)cc1` (stereo not shown) [Compound I-174]: the IC50 is 572 nM.

Regarding `COc1ccccc1C1c2c(C(C)(C)C)n[nH]c2C(=O)N1c1ccc(-c2ccco2)cc1` (stereo not shown) [II-203], the IC50 is 28 nM.

As for `COc1ccccc1C1c2c(C(C)C)n[nH]c2CN1C(=O)Nc1ccc(-c2ccsc2)cc1` (stereo not shown) [II-189], the IC50 came to 897 nM.

In the case of `COc1ncccc1C1C(C(=O)CC(C)C)=C(O)C(=O)N1c1ccc(-c2csc(C)c2)cc1` (stereo not shown) [Compound I-371], the half-inhibitory concentration (IC50) came to 447 nM.

For the molecule `COc1ccccc1C1c2c(C(C)(C)CO)n[nH]c2C(=O)N1c1ccc(-c2ccoc2)cc1` (stereo not shown) [II-219], the half-inhibitory concentration (IC50) was found to be 14 nM.

For the molecule `COc1ccc(-c2n[nH]c3c2C(c2ccccc2OCCO)N(c2nc4cc(OC)ccc4s2)C3=O)cc1` (stereo not shown) [II-117], the IC50 came out at 348 nM.

Regarding `COCCOc1ccccc1C1C(C(=O)C(C)C)=C(O)C(=O)N1c1ccc(-c2cc(C)on2)cc1` (stereo not shown) [Compound I-481], the half-inhibitory concentration (IC50) came out at 378 nM.

Take `CC(C)(CO)c1n[nH]c2c1C(c1ccccn1)N(c1ccc(-c3ccsc3)cc1)C2=O` (stereo not shown) [II-234]: the 50% inhibitory concentration (IC50) is 130 nM.

The IC50 is the point on the concentration scale where inhibition reaches its midpoint.
